For 24 compounds, IC50 results are on record in patent publication US10894788B2, “Inhibitors of cyclin-dependent kinases” (Kinnate Biopharma Inc., priority 2018, dated 2021).

For orientation: IC50 means the concentration that gives 50% inhibition.

Molecules are shown by their SMILES. Where only a bound is given, the exact number is not on record here.

CDK12 wt/CycK, sequence (Q9NYV4 whole entry): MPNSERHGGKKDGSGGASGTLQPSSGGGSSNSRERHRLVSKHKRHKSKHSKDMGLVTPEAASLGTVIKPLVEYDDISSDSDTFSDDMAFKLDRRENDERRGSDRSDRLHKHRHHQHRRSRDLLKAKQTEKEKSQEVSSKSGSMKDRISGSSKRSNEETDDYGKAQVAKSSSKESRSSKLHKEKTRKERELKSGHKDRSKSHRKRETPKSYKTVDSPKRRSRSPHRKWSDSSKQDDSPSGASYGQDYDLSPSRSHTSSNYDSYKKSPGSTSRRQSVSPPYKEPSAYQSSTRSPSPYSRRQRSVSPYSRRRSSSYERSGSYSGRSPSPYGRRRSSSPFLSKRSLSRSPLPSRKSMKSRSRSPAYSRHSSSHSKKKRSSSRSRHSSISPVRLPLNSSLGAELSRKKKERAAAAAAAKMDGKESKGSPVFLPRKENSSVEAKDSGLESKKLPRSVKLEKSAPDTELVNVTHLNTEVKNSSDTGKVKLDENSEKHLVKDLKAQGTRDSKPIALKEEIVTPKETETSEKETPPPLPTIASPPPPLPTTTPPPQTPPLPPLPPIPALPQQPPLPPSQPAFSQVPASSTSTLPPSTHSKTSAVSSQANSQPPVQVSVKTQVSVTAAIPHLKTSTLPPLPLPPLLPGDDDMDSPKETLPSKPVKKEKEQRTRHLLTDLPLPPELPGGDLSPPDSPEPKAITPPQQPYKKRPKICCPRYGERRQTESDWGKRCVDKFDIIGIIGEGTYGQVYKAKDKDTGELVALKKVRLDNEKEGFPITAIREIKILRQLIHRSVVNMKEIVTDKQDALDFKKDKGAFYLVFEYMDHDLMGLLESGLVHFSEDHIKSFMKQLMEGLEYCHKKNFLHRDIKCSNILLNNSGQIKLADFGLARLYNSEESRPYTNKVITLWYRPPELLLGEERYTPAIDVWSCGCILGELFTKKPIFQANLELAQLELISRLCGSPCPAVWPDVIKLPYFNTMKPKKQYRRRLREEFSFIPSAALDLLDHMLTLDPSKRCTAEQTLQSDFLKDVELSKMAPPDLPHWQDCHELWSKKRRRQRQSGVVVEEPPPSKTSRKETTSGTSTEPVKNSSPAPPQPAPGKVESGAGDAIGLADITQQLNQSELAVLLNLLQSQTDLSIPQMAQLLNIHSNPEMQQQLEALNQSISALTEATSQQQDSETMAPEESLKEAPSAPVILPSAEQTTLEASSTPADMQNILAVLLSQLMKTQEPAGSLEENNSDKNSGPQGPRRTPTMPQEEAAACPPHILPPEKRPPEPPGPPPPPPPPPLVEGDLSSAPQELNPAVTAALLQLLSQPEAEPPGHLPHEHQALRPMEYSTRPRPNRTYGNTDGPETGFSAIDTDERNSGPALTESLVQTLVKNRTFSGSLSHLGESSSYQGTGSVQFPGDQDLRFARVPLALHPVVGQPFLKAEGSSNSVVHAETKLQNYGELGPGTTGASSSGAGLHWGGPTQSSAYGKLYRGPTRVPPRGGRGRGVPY
CDK12 wt/CycK, sequence (O75909 whole entry partner): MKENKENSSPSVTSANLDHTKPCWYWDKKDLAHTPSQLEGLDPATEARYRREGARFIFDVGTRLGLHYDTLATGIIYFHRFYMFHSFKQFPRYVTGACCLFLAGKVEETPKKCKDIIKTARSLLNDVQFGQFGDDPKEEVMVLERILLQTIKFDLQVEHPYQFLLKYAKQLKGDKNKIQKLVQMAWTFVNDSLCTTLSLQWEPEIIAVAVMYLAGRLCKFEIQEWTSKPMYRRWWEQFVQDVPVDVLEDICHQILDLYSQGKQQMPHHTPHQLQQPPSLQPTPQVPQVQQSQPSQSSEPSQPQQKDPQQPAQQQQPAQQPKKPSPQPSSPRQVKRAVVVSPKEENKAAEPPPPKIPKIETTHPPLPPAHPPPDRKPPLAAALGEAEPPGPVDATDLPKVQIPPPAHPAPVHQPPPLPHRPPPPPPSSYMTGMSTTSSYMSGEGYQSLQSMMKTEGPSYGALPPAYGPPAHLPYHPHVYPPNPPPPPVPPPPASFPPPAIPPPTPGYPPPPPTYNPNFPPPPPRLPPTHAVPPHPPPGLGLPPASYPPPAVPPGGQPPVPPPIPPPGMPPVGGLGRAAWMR

This assay has as its target CDK12 wt/CycK (Homo sapiens (Human), UniProt Q9NYV4). Kind of assay: Radiometric protein kinase assay (33PanQinase Activity Assay), Assay Condition A (thiol containing conditions). It counts as biochemical. The conditions noted are these: thiol containing conditions (1.2 mM DTT), ATP 0.3 μM; read-out: CDK12 IC50 Condition A. The procedure:
Example 1—Assay Condition A (Thiol Containing Conditions)
Objective: The IC50 profile of test compounds was determined using three protein kinases.
Test compounds: The compounds were provided as pre-weighed powders in vials. The compounds were dissolved to 1×10^−02M by adding DMSO. 100 μl of each of the resulting stock solutions were transferred into column 2 of four 96 well “master plates”.
Prior to testing, the 1×10^−02M stock solutions in column 2 of the master plates were subjected to a serial, semi-logarithmic dilution using 100% DMSO as a solvent. […] Column 1 and 7 were filled with 100% DMSO as controls. Subsequently, 2×10 μl from each well of the serial diluted copy plates were aliquoted with a 96 channel pipettor into two identical sets of “compound dilution plates”.
In the process, 90 μl H2O were added to each well of a set of compound dilution plates. To minimize potential precipitation, the H2O was added to each plate only a few minutes before the transfer of the compound solutions into the assay plates. Each plate was shaken thoroughly, resulting in a “compound dilution plate/10% DMSO”.
For the assays, 5 μl solution from each well of the compound dilution plates/10% DMSO were transferred into the assay plates. The final volume of the assay was 50 μl. All compounds were tested at 10 final assay concentrations in the range from 1×10^−04M to 3×10^−09M, in singlicate. The final DMSO concentration in the reaction cocktails was 1% in all cases.
Recombinant protein kinases: All protein kinases were expressed in Sf9 insect cells or in E. coli as recombinant GST-fusion proteins or His-tagged proteins, either as full-length or enzymatically active fragments. All kinases were produced from human cDNAs and purified by either GSH-affinity chromatography or immobilized metal. Affinity tags were removed from a number of kinases during purification. The purity of the protein kinases was examined by SDS-PAGE/Coomassie staining, the identity was checked by mass spectroscopy.
Protein kinase assay: A radiometric protein kinase assay (^33PanQinase® Activity Assay) was used for measuring the kinase activity of the three protein kinases. All kinase assays were performed in 96-well FlashPlates™ from PerkinElmer (Boston, Mass., USA) in a 50 μl reaction volume. The reaction cocktail was pipetted in four steps in the following order: • 20 μl of assay buffer (standard buffer) • 5 μl of ATP solution (in H2O) • 5 μl of test compound (in 10% DMSO) • 20 μl enzyme/substrate mix
The following amounts of enzyme and substrate were used per well:
The reaction cocktails were incubated at 30° C. for 60 minutes. The reaction was stopped with 50 μl of 2% (v/v) H3PO4, plates were aspirated and washed two times with 200 μl 0.9% (w/v) NaCl. Incorporation of ^33Pi was determined with a microplate scintillation counter (Microbeta, Wallac). All assays were performed with a BeckmanCoulter/SAGIAN™ Core System.
Evaluation of raw data: The median value of the counts in column 1 (n=8) of each assay plate was defined as “low control”. This value reflects unspecific binding of radioactivity to the plate in the absence of a protein kinase but in the presence of the substrate. The median value of the counts in column 7 of each assay plate (n=8) was taken as the “high control”, i.e. full activity in the absence of any inhibitor. The difference between high and low control was taken as 100% activity.
As part of the data evaluation the low control value from a particular plate was subtracted from the high control value as well as from all 80 “compound values” of the corresponding plate. The residual activity (in %) for each well of a particular plate was calculated by using the following formula: Res. Activity (%)=100×[(cpm of compound−low control)/(high control−low control)]
The residual activities for each concentration and the compound IC50 values were calculated using Quattro Workflow V3.1.1 (Quattro Research GmbH, Munich, Germany).
Take `C=CC(=O)Nc1ccc(C(=O)N2CC[C@H](Nc3ncc(Cl)cn3)C2)cc1` [Example 155, (S)—N-(4-(3-((5-chloropyrimidin-2-yl)amino)pyrrolidine-1-carbonyl)phenyl)acrylamide]: the IC50 fell in the range of 10000 to 30000 nM. In the case of `COc1nc(N[C@@H]2CCN(C(=O)c3ccc(NC(=O)/C=C/CN(C)C)cc3)C2)ncc1Cl` [Example 115, (R,E)-N-(4-(3-((5-chloro-4-methoxypyrimidin-2-yl)amino)pyrrolidine-1-carbonyl)phenyl)-4-(dimethylamino)but-2-enamide] it was 100 to 1000 nM; in that of `C#CC(=O)Nc1ccc(C(=O)N2CC[C@@H](Nc3ncc(Cl)c(OC)n3)C2)cc1` [Example 124, (R)—N-(4-(3-((5-chloro-4-methoxypyrimidin-2-yl)amino)pyrrolidine-1-carbonyl)phenyl)propiolamide], less than 100 nM. With `COc1nc(N[C@@H]2CCN(C(=O)c3ccc(NC(=O)/C=C/CN(C)C)c(C)c3)C2)ncc1Cl` [Example 117, (R,E)-N-(4-(3-((5-chloro-4-methoxypyrimidin-2-yl)amino)pyrrolidine-1-carbonyl)-2-methylphenyl)-4-(dimethylamino)but-2-enamide], the half-inhibitory concentration (IC50) is 100 to 1000 nM. The value for `O=C(c1ccc(N2C(=O)C=CC2=O)cc1)N1CC[C@@H](Nc2ncc(Cl)cn2)C1` [Example 140, (R)-1-(4-(3-((5-chloropyrimidin-2-yl)amino)pyrrolidine-1-carbonyl)phenyl)-1H-pyrrole-2,5-dione] was 1000 to 10000 nM; that for `C=CC(=O)Nc1ccc(C(=O)N2CC[C@@H](Nc3ncc(Cl)c(OCCOCC)n3)C2)cc1N1CCN(C)CC1` [Example 123, (R)—N-(4-(3-((5-chloro-4-(2-ethoxyethoxy)pyrimidin-2-yl)amino)pyrrolidine-1-carbonyl)-2-(4-methylpiperazin-1-yl)phenyl)acrylamide] was 100 to 1000 nM; that for `COc1nc(N[C@@H]2CCN(C(=O)c3ccc(NC(=O)/C=C/CN4CCC[C@@H](F)C4)cc3)C2)ncc1Cl` [Example 178, (E)-N-(4-((R)-3-((5-chloro-4-methoxypyrimidin-2-yl)amino)pyrrolidine-1-carbonyl)phenyl)-4-((R)-3-fluoropiperidin-1-yl)but-2-enamide] was 100 to 1000 nM.

Consider `C=CC(=O)Nc1cccc(C(=O)N2CCC[C@@H](Nc3ncc(Cl)c(OC)n3)C2)c1` [Example 106, (R)—N-(3-(3-((5-chloro-4-methoxypyrimidin-2-yl)amino)piperidine-1-carbonyl)phenyl)acrylamide], for which the concentration for half-maximal inhibition (IC50) fell in the range of 10000 to 30000 nM. The value for `C/C=C/C(=O)Nc1ccc(C(=O)N2CC[C@@H](Nc3ncc(Cl)c(OC)n3)C2)nc1` [Example 150, (R,E)-N-(6-(3-((5-chloro-4-methoxypyrimidin-2-yl)amino)pyrrolidine-1-carbonyl)pyridin-3-yl)but-2-enamide] was 100 to 1000 nM; that for `COc1nc(N[C@@H]2CCN(C(=O)c3ccc(NC(=O)/C=C/CN4CCOCC4)cn3)C2)ncc1Cl` [Example 174, (R,E)-N-(6-(3-((5-chloro-4-methoxypyrimidin-2-yl)amino)pyrrolidine-1-carbonyl)pyridin-3-yl)-4-morpholinobut-2-enamide] was 100 to 1000 nM; that for `C/C=C/C(=O)Nc1ccc(C(=O)N2CC[C@@H](Nc3ncc(Cl)cn3)C2)cc1` [Example 131, (R,E)-N-(4-(3-((5-chloropyrimidin-2-yl)amino)pyrrolidine-1-carbonyl)phenyl)but-2-enamide] was 100 to 1000 nM. The value for `C=CC(=O)Nc1nc(C(=O)N2CCC[C@@H](Nc3ncc(Cl)c(OC)n3)C2)cs1` [Example 101, (R)—N-(4-(3-((5-chloro-4-methoxypyrimidin-2-yl)amino)piperidine-1-carbonyl)thiazol-2-yl)acrylamide] was 100 to 1000 nM; that for `C=CC(=O)Nc1ccc(C(=O)N2CC[C@@H](Nc3ncc(C4CC4)c(OC)n3)C2)cc1` [Example 99, (R)—N-(4-(3-((5-cyclopropyl-4-methoxypyrimidin-2-yl)amino)pyrrolidine-1-carbonyl)phenyl)acrylamide] was 100 to 1000 nM; that for `COc1nc(N[C@@H]2CCN(C(=O)c3ccc(NC(=O)C4CO4)cc3)C2)ncc1Cl` (stereo partly drawn) [Example 142, N-(4-((R)-3-((5-chloro-4-methoxypyrimidin-2-yl)amino)pyrrolidine-1-carbonyl)phenyl)oxirane-2-carboxamide] was 1000 to 10000 nM. In the case of `C=CC(=O)Nc1ccc(C(=O)N2CC[C@@H](Nc3ncc(Cl)c(C(F)(F)F)n3)C2)cc1` [Example 92, (R)—N-(4-(3-((5-chloro-4-(trifluoromethyl)pyrimidin-2-yl)amino)pyrrolidine-1-carbonyl)phenyl)acrylamide] it was less than 100 nM; in that of `C=CC(=O)Nc1ccc(C(=O)N2CC[C@@H](Nc3ncc(Cl)c(OCC)n3)C2)cc1OC1CCOC1` (stereo partly drawn) [Example 143, N-(4-((R)-3-((5-chloro-4-ethoxypyrimidin-2-yl)amino)pyrrolidine-1-carbonyl)-2-((tetrahydrofuran-3-yl)oxy)phenyl)acrylamide], less than 100 nM; in that of `CC#CC(=O)Nc1ccc(C(=O)N2CC[C@@H](Nc3ncc(Cl)c(OC)n3)C2)cc1` [Example 151, (R)—N-(4-(3-((5-chloro-4-methoxypyrimidin-2-yl)amino)pyrrolidine-1-carbonyl)phenyl)but-2-ynamide], less than 100 nM. Turning to `C=CC(=O)Nc1ccc(C(=O)N2CC[C@@H](Nc3ncc(Cl)c(N)n3)C2)cc1` [Example 90, (R)—N-(4-(3-((4-amino-5-chloropyrimidin-2-yl)amino)pyrrolidine-1-carbonyl)phenyl)acrylamide], the IC50 was less than 100 nM.

As for `C=CC(=O)N1CCc2ccc(C(=O)N3CC[C@@H](Nc4ncc(Cl)cn4)C3)cc2C1` [Example 130, (R)-1-(7-(3-((5-chloropyrimidin-2-yl)amino)pyrrolidine-1-carbonyl)-3,4-dihydroisoquinolin-2(1H)-yl)prop-2-en-1-one], the IC50 was in the range of 100 to 1000 nM. In the case of `C=CC(=O)Nc1ccc(C(=O)N2CC[C@@H](Nc3ncc(C(F)(F)F)c(N)n3)C2)cc1` [Example 91, (R)—N-(4-(3-((4-amino-5-(trifluoromethyl)pyrimidin-2-yl)amino)pyrrolidine-1-carbonyl)phenyl)acrylamide] it was less than 100 nM; in that of `C=CC(=O)N(C)c1ccc(C(=O)N2CC[C@@H](Nc3ncc(Cl)c(OC)n3)C2)nc1` [Example 77, (R)—N-(6-(3-((5-chloro-4-methoxypyrimidin-2-yl)amino)pyrrolidine-1-carbonyl)pyridin-3-yl)-N-methylacrylamide], 100 to 1000 nM. In the case of `C=CC(=O)Nc1ccc(C(=O)N2CC[C@@H](Nc3ncc(Br)cn3)C2)cc1OCCN1CCC(F)(F)CC1` [Example 162, (R)—N-(4-(3-((5-bromopyrimidin-2-yl)amino)pyrrolidine-1-carbonyl)-2-(2-(4,4-difluoropiperidin-1-yl)ethoxy)phenyl)acrylamide] it was 100 to 1000 nM; in that of `C=CC(=O)Nc1ccc(C(=O)N2CC[C@@H](Nc3ncc(C(F)(F)F)cn3)C2)cc1` [Example 184, (R)—N-(4-(3-((5-(trifluoromethyl)pyrimidin-2-yl)amino)pyrrolidine-1-carbonyl)phenyl)acrylamide], less than 100 nM.

Take `COc1nc(N[C@@H]2CCN(C(=O)c3ccc(NC(=O)/C=C/CN4CCC[C@H](F)C4)cc3)C2)ncc1Cl` [Example 177, (E)-N-(4-((R)-3-((5-chloro-4-methoxypyrimidin-2-yl)amino)pyrrolidine-1-carbonyl)phenyl)-4-((S)-3-fluoropiperidin-1-yl)but-2-enamide]: the IC50 lay in the range of 100 to 1000 nM.
